Among the test systems are A549; ACHN; DLD-1; HCT-15; Hs-578T; K562; MCF7; MDA-MB-231; Malme-3M; NCI-H460; OVCAR-4; OVCAR-5; OVCAR-8; RXF 393; SK-MEL-28; SK-MEL-5; SW-620; UACC-62; KM12; U-251.
What all share (assay): growth of human tumour cells (NCI), 48 h

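96-well plates; 48 h exposure; 5 concentrations. Endpoints by linear interpolation between flanking doses. Not reached: highest tested concentration assigned. GI50: concentration for 50% inhibition of growth.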 The source made the active and inactive calls. Rule as the data show it: active = GI50 up to about 1.1 µM and inactive = higher.

Consider `CCc1c(CNc2ccc(C(=O)NC(CC(=O)O)C(=O)O)cc2)ccc2nc(N)nc(N)c12` (stereo not drawn), for which the GI50 is < 0.0169 µM (active) in the experiment on A549; < 0.01 µM (active) with ACHN; < 0.0223 µM (active) in the experiment on DLD-1; less than 0.0164 µM in the experiment with HCT-15; > 1000 µM (inactive) in the experiment on Hs-578T; < 0.01 µM (active) with K562. Besides, the GI50 was < 0.0182 µM (active) with MCF7; > 100 µM (inactive) in the experiment with MDA-MB-231; 0.953 µM (active) in the experiment on Malme-3M; < 0.0158 µM (active) with NCI-H460; > 48.8 µM (inactive) with OVCAR-4; 1.82 µM (inactive) with OVCAR-5. In addition, the GI50 with OVCAR-8 is < 0.0184 µM (active); with RXF 393, > 4.65 µM (inactive); in the experiment with SK-MEL-28, 10.2 µM (inactive); in the experiment on SK-MEL-5 it was < 0.0346 µM (active); in the experiment on SW-620, < 0.0138 µM (active); with UACC-62, < 0.0177 µM (active).
For `COc1ccc2[nH]cc(CCNC(C)=O)c2c1` [MELATONIN], the GI50 in the experiment with A549 was > 100 µM (inactive); in the experiment on ACHN it was > 100 µM (inactive); in the experiment on DLD-1, > 100 µM (inactive); in the experiment on HCT-15 it was 77.4 µM; with K562, 39.1 µM (inactive); in the experiment with KM12, > 100 µM (inactive). The GI50 with Malme-3M, in the experiment with NCI-H460, in the experiment with OVCAR-4, with OVCAR-5, in the experiment on OVCAR-8 and in the experiment on RXF 393 was > 100 µM (inactive) throughout. Further, the GI50 in the experiment on SK-MEL-28 is > 100 µM (inactive); in the experiment on SK-MEL-5, > 100 µM (inactive); in the experiment on SW-620, 8.17 µM (inactive); in the experiment with U-251 it was > 100 µM (inactive); in the experiment on UACC-62 it was > 100 µM (inactive).
In the case of `Cc1[nH]c2ccccc2c1C1=NO/C(=N\O)C(c2c(C)[nH]c3ccccc23)C1` (stereo not drawn), the GI50 with A549 is 38.6 µM (inactive); in the experiment on ACHN, 28.6 µM (inactive); in the experiment with DLD-1, 42.3 µM (inactive); in the experiment with HCT-15, 43 µM; in the experiment with K562, 33.2 µM (inactive); in the experiment on KM12 it was 38 µM (inactive). In addition, the GI50 with Malme-3M was 53.2 µM (inactive); with NCI-H460, 23.9 µM (inactive); in the experiment with OVCAR-4 it was 39.1 µM (inactive); in the experiment on OVCAR-5 it was 50 µM (inactive); with OVCAR-8 it was 56.5 µM (inactive); in the experiment on RXF 393, 23.3 µM (inactive). Moreover, the GI50 was 52.5 µM (inactive) in the experiment with SK-MEL-28; 19.9 µM (inactive) with SK-MEL-5; 57.5 µM (inactive) with SW-620; 42.9 µM (inactive) with U-251; 19.9 µM (inactive) in the experiment with UACC-62.
As for `CC(C)(C)C(=O)OC12/C(=N/O)CCCCCC1c1ccccc12` (stereo not drawn), the GI50 in the experiment on A549 is 17.8 µM (inactive); with ACHN, 17.9 µM (inactive); in the experiment with DLD-1 it was 19.5 µM (inactive); in the experiment on HCT-15, 16.2 µM; in the experiment with K562 it was 19.5 µM (inactive); in the experiment on KM12, 16.1 µM (inactive). Moreover, the GI50 with Malme-3M is 21 µM (inactive); in the experiment with NCI-H460, 17.3 µM (inactive); in the experiment with OVCAR-4 it was 18.9 µM (inactive); in the experiment with OVCAR-5, 15.3 µM (inactive); in the experiment with OVCAR-8, 19.3 µM (inactive); in the experiment on RXF 393, 19.5 µM (inactive). In addition, the GI50 is 18.5 µM (inactive) with SK-MEL-28; 17.8 µM (inactive) in the experiment with SK-MEL-5; 17.6 µM (inactive) with SW-620; 17.7 µM (inactive) with U-251; 17.4 µM (inactive) in the experiment on UACC-62.
`CCOC(=O)C1=C(O)C(=O)c2ccsc2C1=O`: the GI50 in the experiment on A549 was > 100 µM (inactive); in the experiment with ACHN, > 100 µM (inactive); in the experiment on DLD-1 it was > 100 µM (inactive); with HCT-15, more than 100 µM; in the experiment on K562 it was > 100 µM (inactive); in the experiment with KM12, > 100 µM (inactive). Moreover, the GI50 in the experiment on Malme-3M, in the experiment with NCI-H460, in the experiment with OVCAR-4, in the experiment on OVCAR-5, in the experiment on OVCAR-8 and in the experiment with RXF 393 was > 100 µM (inactive) each time. Also, the GI50 in the experiment on SK-MEL-28, with SK-MEL-5, in the experiment with SW-620, in the experiment on U-251 and with UACC-62 was > 100 µM (inactive) throughout.
As to `CN(C)C(=S)/N=c1\ssc(=S)n1-c1ccccc1`, the GI50 was 25.3 µM (inactive) with A549; 16.7 µM (inactive) in the experiment on ACHN; 13.8 µM (inactive) with DLD-1; 14.7 µM in the experiment on HCT-15; 17.1 µM (inactive) with K562; 5.38 µM (inactive) with KM12. Besides, the GI50 in the experiment on Malme-3M is 16.9 µM (inactive); in the experiment with NCI-H460 it was 16.1 µM (inactive); with OVCAR-4 it was 15.9 µM (inactive); in the experiment with OVCAR-5, 16 µM (inactive); with OVCAR-8, 15.2 µM (inactive); in the experiment on RXF 393, 18.7 µM (inactive). The GI50 with SK-MEL-28 is 16.7 µM (inactive); in the experiment on SK-MEL-5 it was 32.7 µM (inactive); in the experiment on SW-620, 10.7 µM (inactive); with U-251 it was 15.8 µM (inactive); in the experiment on UACC-62, 16 µM (inactive).
